Values quoted from earlier work as cited in publication PMC5598522 (Toxicology Reports, 2014).

Key:
[1] = cited from earlier work
[2] = Wistar rats; cited from earlier work
rats = details: cited from earlier work

Row | SMILES | Tumor incidences in 2 year carcinogenicity bioassay [1] | Weight gain [2] | Uterine and mammary tumors (rats)
1 | COC(=O)[C@H](c1ccccc1Cl)N1CCc2sccc2C1 [Clopidogrel] | did not alter tumor incidences |  | 
2 | CC(C)C[C@H]1C(=O)N2CCC[C@H]2[C@]2(O)O[C@](NC(=O)[C@@H]3C=C4c5cccc6[nH]c(Br)c(c56)C[C@H]4N(C)C3)(C(C)C)C(=O)N12 [bromocriptine] |  | inhibited weight gain | increases uterine and decreases mammary tumors only in rats
